In EP0004516A2, “Pharmaceutical compositions active on the gastro-intestinal motricity” (SCIENCE UNION ET Cie SOCIETE FRANCAISE DE RECHERCHE MEDICALE, priority 1978, dated 1979):

Experiments:
[1] = test system: troubles moteurs gastro-duodénaux (dyspepsie hyposthénique en rapport avec un état dépressif psychasthénique); assay: Double-blind cross-over clinical and external digestive electromyographic study versus placebo (Exemple IV); type: in vivo, humaine
Experimental: Effet normalisateur des compositions à base d'acide 7-[(3-chloro 6-methyl 5,5-dioxo 6,11-dihydrodibenzo (c,f) thiazepin 1,2-11-yl) amino] heptanoique sur les troubles moteurs gastro-duodénaux en clinique humaine.
Evaluer l'efficacité du principe actif dans trois posologies différentes : • .
Les malades ont été divisés en deux groupes de 12 sujets • . Un 1er groupe de 12 cas a reçu successivement et en cross- over 1 comprimé par jour de 12,5mg et de 25mg de PA. (Un malade de ce groupe a abandonné le traitement) • . Un 2ème groupe de 12 cas a reçu successivement et en cross- over 2 comprimés par jour, soit 2 x 12.
Chaque sujet avait au minimum : • 1. Un syndrome dyspeptique hyposténique, avec • - ballonnements • - pesanteur • - somnolence post-prandiale • - brûlures et / ou douleurs épigastriques • - états nauséeux • 2. Ln état dépressif psycnasténique, avec • - dépression • - inhibition psycho-motrice • - asthénie • - anxiété psychique et / ou somatisée • - troubles du sommeil (difficulté à l'endormissement ou réveil précoce) • 3. Un électromyogramme digestif externe pathologique, avec un retard d'apparition des ondes gastriques après le repas (d'au moins 2 heures).
• . Selon la gravité clinique, de 0 à 3 • . Pour l'électromyogramme digestif, chez un sujet normal, les ondes gastriques apparaissent dès l'ingestion d'un repas équilibré et persistent pendant 5 heures en moyenne. Cette situation était côtée 0.
Chez le dyspeptique hyposténique, il existe une absence d'ondes gastriques dans la phase post-prandiale, qui peut durer plus de 3 heures. Cette situation était côtée 2.
Si, après le traitement, la sidération diminuait, elle était côtée 1.
L'examen clinique était répété après chaque passage du produit actif, ou de placebc, soit 5 fois par milade.
En ce qui concerne les tracés EMG, nous avions prévu quatre enregistrements par sujet : avant traitement, après chaque passage de Principe Actif, et après le dernier passage Placebo.

[2] = test system: musculature lisse tube digestif; assay: Pharmacological studies: antispasmodic action and restoration of digestive smooth muscle motility
fibre lisse = assay: Anti-serotonin action shown directly on smooth fibre
[3] = test system: ulcère produit par la contrainte; assay: Restraint ulcer protection; type: in vivo, animal
[4] = 1 x 25 mg/jour, 15 jours, Groupe I, 11 cas
[5] = 1 x 12,5 mg/jour, 15 jours, Groupe I, 11 cas
[6] = 2 x 25mg/jour, 15 jours, Groupe II, 12 cas
[7] = 2 x 12,5mg/jour, 15 jours, Groupe II, 12 cas

SMILES: CN1c2ccccc2C(NCCCCCCC(=O)O)c2ccc(Cl)cc2S1(=O)=O (racemic) [principe actif, acide 7-[(3-chloro 6-méthyl 5,5-dioxo 6,11-dihydrodibenzo (c,f)thiazepin 1,2-11-yl)amino] heptanoique]
- absence d'effet [1, 4]: 18,2%
- très bon effet thérapeutique global [1, 4]: 81,8%
- activité moyenne [1, 5]: 54,6%
- bonne activité (très nette amélioration de l'ensemble des symptômes digestifs, psychiques, ainsi que des tracés EMG externes) [1, 5]: 45,4%
- activité bonne [1, 6]: 83,3%
- activité moyenne [1, 6]: 16,6%
- Bon effet thérapeutique global [1, 7]: 66,6%
- effet moyen [1, 7]: 33,3%
- activité globale par rapport au placebo ([1]; 12,5mg, 25mg et 50mg, both groups): toujours été nettement supérieur au placebo
- action antispasmodique [2]: importante
- restauration de la motricité (atonie de la musculature lisse) [2]: capables de restaurer une motricité constante et bien coordonnée
- action anti sérotonine (fibre lisse): très importante
- effet anti-secrétoire ([3]; accompanying the protective effect): ne s'accompagne pas d'effet anti-secrétoire
- protection contre l'ulcère produit par la contrainte ([3]; in vivo): protégeait l'animal contre l'ulcère produit par la contrainte
